In patent US11129840B2, “Methods for identifying novel dosing regimens” (Zavante Therapeutics, Inc., priority 2017, dated 2021):

What follows are compounds tested on Pa isolates (assay: Time kill assays against 12 isolates). Settings: tested alone, FOS-S isolates; >3-log10 reduction at 12 and/or 24 hours.
Type: cell-based, Pseudomonas aeruginosa
Description: Forty-three Pa isolates (recovered from unique patients) were selected for testing. […] Interactions between FOS and other agents were determined by double disc testing on Mueller Hinton agar. Discs containing 300 μg FOS and 50 G6P were used, along with commercially available Kirby Bauer discs for other agents. Intravenous FOS MIC breakpoints are not established. […] Time kill assays against 12 isolates were performed for FOS, CAZ-AVI, CFT-TAZ and PIP-TAZ (alone, and each agent in combination with FOS) at the respective MIC (or breakpoint MIC for resistant isolates). Bactericidal activity during time-kills was defined as >3-log10 reduction at 12 and/or 24 hours, compared to starting inoculum. Synergy during time-kills was defined as >2-log10 reduction at 12 and/or 24 hours, compared to best single agent alone.

Compound | % of isolates with bactericidal activity
Piperacillin-tazobactam [PTZ] | 8%
ceftazidime-avibactam [C-A] | 8%
ceftolozane-tazobactam [C-T] | 8%

The compounds below were run on ESBL-producing K. pneumoniae isolate (assay: Time-kill kinetic analysis). Settings: CAZ ¼ and 1×MIC, by 4-8 h.
Type: cell-based, Klebsiella pneumoniae
Description: Broth microdilution for FOS (Mueller-Hinton broth supplemented with 25 μg/mL glucose-6-phosphate) and comparators was performed before performing TKK. TKK employed MIC multiples for FOS, and ¼ and 1×MIC of select comparators, and combinations of FOS and comparator. TKK were sampled for colony counts at T0, T2, T4, T8 and T24 hours (h). Two Klebsiella pneumoniae isolates (one KPC and one ESBL), two Pseudomonas aeruginosa isolates (non-MDR), and one Acinetobacter baumannii isolate (MDR) were tested.

Compound | decrease in CFU
CC(C)(O/N=C(\C(=O)N[C@@H]1C(=O)N2C(C(=O)[O-])=C(C[n+]3ccccc3)CS[C@H]12)c1csc(N)n1)C(=O)O [CAZ, ceftazidime] | 0.9-2.1 log10 CFU

These compounds were tested on Carbapenem-resistant Enterobacteriaceae (CRE) clinical isolates (assay: Susceptibility testing, CRE clinical isolates). Settings: 50 isolates.
Type: cell-based

Compound | Non-susceptiblity rate
CC(C)(O/N=C(\C(=O)N[C@@H]1C(=O)N2C(C(=O)[O-])=C(C[n+]3ccccc3)CS[C@H]12)c1csc(N)n1)C(=O)O [CAZ, ceftazidime] | 92%
C[C@@H](O)[C@H]1C(=O)N2C(C(=O)O)=C(SCCN=CN)C[C@H]12 [IMP, Imipenem] | 86%
C[C@@H](O)[C@H]1C(=O)N2C(C(=O)O)=C(S[C@@H]3CN[C@H](C(=O)N(C)C)C3)[C@H](C)[C@H]12 [MEM, Meropenem] | 82%
Gentamicin | 54%
Piperacillin-tazobactam [PTZ] | 96%
ceftazidime-avibactam [C-A] | 6%
ceftolozane-tazobactam [C-T] | 43%
